Read-outs that look alike come from different tables or passages of the source.
Columns and labels:
Experiment in all cases: PDSP off-target radioligand binding assay
[1] = target: T1, M1 (Homo sapiens, UniProt P11229)
T1 sequence (P11229 1-460): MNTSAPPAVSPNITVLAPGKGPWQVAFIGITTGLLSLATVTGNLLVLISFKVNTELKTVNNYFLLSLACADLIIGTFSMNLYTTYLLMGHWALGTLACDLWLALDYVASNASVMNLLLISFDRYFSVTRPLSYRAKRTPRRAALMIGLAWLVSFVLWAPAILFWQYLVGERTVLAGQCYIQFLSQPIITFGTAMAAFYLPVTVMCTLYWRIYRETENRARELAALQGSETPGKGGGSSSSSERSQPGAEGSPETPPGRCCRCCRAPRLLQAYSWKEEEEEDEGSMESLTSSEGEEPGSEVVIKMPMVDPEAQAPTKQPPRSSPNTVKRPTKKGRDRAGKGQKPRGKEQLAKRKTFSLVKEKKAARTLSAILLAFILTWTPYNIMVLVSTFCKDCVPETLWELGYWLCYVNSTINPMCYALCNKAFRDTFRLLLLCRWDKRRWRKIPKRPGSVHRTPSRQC
Method in brief: (§1)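 Read-out is percent inhibition of specific radioligand binding, from scintillation counting of filter-trapped bound ligand. The compound was present at 10 µM in quadruplicate wells, with radioligand close to Kd and 90 min room-temperature incubation in the dark.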

[2] = target: H1 (Homo sapiens, UniProt P35367)
H1, sequence (P35367 whole entry): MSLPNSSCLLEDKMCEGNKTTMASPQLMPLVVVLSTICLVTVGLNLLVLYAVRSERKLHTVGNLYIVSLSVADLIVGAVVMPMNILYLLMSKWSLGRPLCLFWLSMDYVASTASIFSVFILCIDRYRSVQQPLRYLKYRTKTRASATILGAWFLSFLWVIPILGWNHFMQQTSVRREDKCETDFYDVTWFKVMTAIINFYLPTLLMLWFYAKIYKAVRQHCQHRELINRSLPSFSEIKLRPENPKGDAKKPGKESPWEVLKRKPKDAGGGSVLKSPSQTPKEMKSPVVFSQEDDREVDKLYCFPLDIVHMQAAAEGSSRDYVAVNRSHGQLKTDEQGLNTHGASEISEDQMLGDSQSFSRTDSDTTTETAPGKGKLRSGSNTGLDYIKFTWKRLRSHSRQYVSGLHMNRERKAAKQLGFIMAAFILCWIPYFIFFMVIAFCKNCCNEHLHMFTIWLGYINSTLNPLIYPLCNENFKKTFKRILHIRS
Method in brief: as §1

[3] = target: T2, 5-HT3 (Homo sapiens, UniProt P46098)
T2 construct: NIMH PDSP
T2 sequence (P46098 24-478): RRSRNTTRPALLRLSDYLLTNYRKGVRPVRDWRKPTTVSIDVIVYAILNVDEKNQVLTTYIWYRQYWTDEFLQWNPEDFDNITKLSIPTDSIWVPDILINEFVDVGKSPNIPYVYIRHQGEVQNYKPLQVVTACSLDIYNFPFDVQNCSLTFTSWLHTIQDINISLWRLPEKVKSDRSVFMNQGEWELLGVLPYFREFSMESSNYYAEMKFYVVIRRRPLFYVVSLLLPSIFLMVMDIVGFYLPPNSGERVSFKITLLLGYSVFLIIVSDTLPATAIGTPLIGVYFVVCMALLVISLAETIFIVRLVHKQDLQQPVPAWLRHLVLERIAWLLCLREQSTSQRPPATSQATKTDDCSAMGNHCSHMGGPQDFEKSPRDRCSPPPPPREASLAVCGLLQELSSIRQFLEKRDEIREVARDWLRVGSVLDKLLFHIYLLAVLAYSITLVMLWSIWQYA
Method in brief: as §1

[4] = target: T3, M5 (Homo sapiens, UniProt P08912)
T3 sequence (P08912 1-532): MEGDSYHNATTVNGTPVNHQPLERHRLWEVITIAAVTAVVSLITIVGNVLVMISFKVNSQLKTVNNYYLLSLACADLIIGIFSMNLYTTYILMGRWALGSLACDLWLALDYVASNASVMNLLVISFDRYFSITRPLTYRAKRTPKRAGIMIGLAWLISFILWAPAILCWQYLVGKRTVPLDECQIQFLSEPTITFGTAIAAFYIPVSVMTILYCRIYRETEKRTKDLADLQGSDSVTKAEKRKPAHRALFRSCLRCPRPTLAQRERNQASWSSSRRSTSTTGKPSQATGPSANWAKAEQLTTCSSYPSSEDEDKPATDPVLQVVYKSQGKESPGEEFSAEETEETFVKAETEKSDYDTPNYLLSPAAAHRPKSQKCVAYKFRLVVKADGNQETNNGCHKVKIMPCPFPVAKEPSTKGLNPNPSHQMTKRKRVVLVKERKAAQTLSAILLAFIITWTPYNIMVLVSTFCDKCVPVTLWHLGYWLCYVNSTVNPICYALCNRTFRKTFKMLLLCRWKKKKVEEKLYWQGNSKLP
Method in brief: as §1

[5] = target: T4, Alpha1A (Homo sapiens, UniProt P35348)
T4 construct: NIMH PDSP
T4 sequence (P35348 1-466): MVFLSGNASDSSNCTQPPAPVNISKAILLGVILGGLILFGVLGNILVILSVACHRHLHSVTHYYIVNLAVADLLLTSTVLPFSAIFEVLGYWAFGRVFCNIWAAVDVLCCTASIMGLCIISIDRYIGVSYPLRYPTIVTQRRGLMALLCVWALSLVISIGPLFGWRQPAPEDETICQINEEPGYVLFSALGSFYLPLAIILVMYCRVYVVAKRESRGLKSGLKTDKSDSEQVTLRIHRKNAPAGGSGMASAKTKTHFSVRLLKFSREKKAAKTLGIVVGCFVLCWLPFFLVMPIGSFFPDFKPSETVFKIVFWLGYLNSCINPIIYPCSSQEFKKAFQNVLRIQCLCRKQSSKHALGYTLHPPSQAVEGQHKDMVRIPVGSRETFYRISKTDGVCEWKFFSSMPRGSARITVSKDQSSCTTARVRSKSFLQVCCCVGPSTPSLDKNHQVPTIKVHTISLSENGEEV
Method in brief: as §1

[6] = quadruplicate, read-out: Mean±SD % inhibition
[7] = replicate 1, read-out: % Inhibition 1
[8] = replicate 2, read-out: % Inhibition 2
[9] = replicate 3, read-out: % Inhibition 3
[10] = replicate 4, read-out: % Inhibition 4

SMILES: COc1ccnc(N2CCC3(CCCN(Cc4cn(C)c5ccccc45)C3=O)CC2)n1 [CW24]
- inhibition at 10 µM [1, 6]: 0.29 ± 11.9%
- inhibition at 10 µM [1, 7]: 17.4%
- inhibition at 10 µM [1, 8]: -8.79%
- inhibition at 10 µM [1, 9]: -6.38%
- inhibition at 10 µM [1, 10]: -1.13%
- inhibition at 10 µM [2, 6]: 10.5 ± 12.7%
- inhibition at 10 µM [2, 7]: 13%
- inhibition at 10 µM [2, 8]: -0.52%
- inhibition at 10 µM [2, 9]: 1.94%
- inhibition at 10 µM [2, 10]: 27.5%
- inhibition at 10 µM [3, 6]: -4 ± 15.6%
- inhibition at 10 µM [3, 7]: -7.18%
- inhibition at 10 µM [3, 8]: 2.23%
- inhibition at 10 µM [3, 9]: -23.9%
- inhibition at 10 µM [3, 10]: 12.9%
- inhibition at 10 µM [4, 6]: 27.4 ± 11.1%
- inhibition at 10 µM [4, 7]: 15.3%
- inhibition at 10 µM [4, 8]: 31.9%
- inhibition at 10 µM [4, 9]: 40.5%
- inhibition at 10 µM [4, 10]: 21.6%
- inhibition at 10 µM [5, 6]: -7.99 ± 16.7%
- inhibition at 10 µM [5, 7]: 17%
- inhibition at 10 µM [5, 8]: -16.2%
- inhibition at 10 µM [5, 9]: -17.6%
- inhibition at 10 µM [5, 10]: -15.1%

Reference: PMC7179119, “A New Positron Emission Tomography Probe for Orexin Receptors Neuroimaging” (Molecules, 2020)
